Results reported in article PMC4628711, “Antiproliferative and Antiestrogenic Activities of Bonediol an Alkyl Catechol from Bonellia macrocarpa” (BioMed Research International, 2015).

Experiments:
[1] = biological target: T1, ERβ (estrogen receptor β) (Homo sapiens, UniProt Q92731); assay: competitive [3H]-17β-estradiol radioligand binding, in vitro translated receptor (TNT reticulocyte lysate)
T1 construct: gene ESR2

[2] = biological target: T2, ERα (estrogen receptor α) (Homo sapiens, UniProt P03372); assay: as above
T2 construct: gene ESR1
T2 sequence (P03372 1-595): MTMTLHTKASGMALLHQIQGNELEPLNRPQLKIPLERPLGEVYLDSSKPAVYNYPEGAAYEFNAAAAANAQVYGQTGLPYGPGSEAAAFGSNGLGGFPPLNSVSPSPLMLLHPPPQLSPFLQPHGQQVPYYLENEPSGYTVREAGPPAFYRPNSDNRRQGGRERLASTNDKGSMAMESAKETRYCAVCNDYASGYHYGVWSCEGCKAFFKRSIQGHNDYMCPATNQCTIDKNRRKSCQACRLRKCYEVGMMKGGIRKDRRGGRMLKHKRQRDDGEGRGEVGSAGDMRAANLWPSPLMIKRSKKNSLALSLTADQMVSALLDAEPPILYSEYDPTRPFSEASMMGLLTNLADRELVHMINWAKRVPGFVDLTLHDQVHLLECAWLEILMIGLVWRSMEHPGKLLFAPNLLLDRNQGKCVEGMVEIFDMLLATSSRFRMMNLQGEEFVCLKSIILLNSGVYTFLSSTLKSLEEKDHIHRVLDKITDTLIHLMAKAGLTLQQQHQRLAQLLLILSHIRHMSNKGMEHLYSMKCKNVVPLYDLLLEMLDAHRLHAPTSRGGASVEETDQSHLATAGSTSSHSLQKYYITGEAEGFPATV

T1 sequence (Q92731 whole entry): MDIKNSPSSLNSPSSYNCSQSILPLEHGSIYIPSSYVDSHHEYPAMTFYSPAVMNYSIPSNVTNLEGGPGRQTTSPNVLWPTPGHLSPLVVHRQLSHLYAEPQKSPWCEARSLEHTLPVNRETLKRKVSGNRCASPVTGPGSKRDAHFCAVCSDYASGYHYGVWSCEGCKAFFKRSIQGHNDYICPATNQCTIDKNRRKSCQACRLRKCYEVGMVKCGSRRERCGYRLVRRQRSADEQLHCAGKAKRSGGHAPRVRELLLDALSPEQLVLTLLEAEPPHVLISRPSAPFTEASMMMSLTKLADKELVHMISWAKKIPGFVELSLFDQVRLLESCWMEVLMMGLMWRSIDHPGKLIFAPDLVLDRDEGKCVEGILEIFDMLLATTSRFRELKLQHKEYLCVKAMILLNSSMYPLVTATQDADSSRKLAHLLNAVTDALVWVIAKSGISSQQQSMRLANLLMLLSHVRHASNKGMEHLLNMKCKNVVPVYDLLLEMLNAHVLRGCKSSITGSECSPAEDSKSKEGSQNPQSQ

IC50 [1]: 2.1 µM | IC50 [2]: 2.5 µM
Substance: bonediol
